Results reported in ChEMBL document CHEMBL5584328, “Integrating computational and experimental chemical biology revealed variable anticancer activities of phosphodiesterase isoenzyme 5 inhibitors (PDE5i) in lung cancer” (RSC Med Chem, 2024).
Calls of active or inactive are those of the source. The calls are words filed in the database; no cut-off is given here.

How the values were obtained:
NCI-H1299 [1] = assay: Potentiation of cisplatin-induced cytotoxicity against human NCI-H1299 cells assessed as fold reduction in cisplatin IC50 at 1:4 ratio of cisplatin to compound measured after 48 hrs by MTT assay relative to cisplatin alone; assay type: functional
A549 [2] = assay: Potentiation of cisplatin-induced cytotoxicity against human A549 cells assessed as fold reduction in cisplatin IC50 at 1:5 ratio of cisplatin to compound measured after 48 hrs by MTT assay relative to cisplatin alone; assay type: functional
NCI-H661 [3] = assay: Antiproliferative activity against human NCI-H661 cells measured after 48 hrs by MTT assay; assay type: functional, cell-based
NCI-H1299 [4] = assay: Antiproliferative activity against human NCI-H1299 cells measured after 72 hrs by MTT assay; assay type: functional, cell-based
NCI-H1299 [5] = assay: Antiproliferative activity against human NCI-H1299 cells by MTT assay; assay type: functional, cell-based; conditions: time 24-72 hrs, TDE = time-dependent effect
A549 [6] = assay: Potentiation of raloxifene-induced cytotoxicity against human A549 cells assessed as fold reduction in raloxifene IC50 at 1:3 ratio of raloxifene to compound measured after 48 hrs by MTT assay relative to raloxifene alone; assay type: functional
NCI-H1299 [7] = assay: Antiproliferative activity against human NCI-H1299 cells measured after 24 hrs by MTT assay; assay type: functional, cell-based
NCI-H661 [8] = assay: Potentiation of raloxifene-induced cytotoxicity against human NCI-H661 cells assessed as combination index at 1:2 ratio of raloxifene to compound measured after 48 hrs by MTT assay; assay type: functional
NCI-H661 [9] = assay: Antiproliferative activity against human NCI-H661 cells measured after 72 hrs by MTT assay; assay type: functional, cell-based
NCI-H661 [10] = assay: Potentiation of raloxifene-induced cytotoxicity against human NCI-H661 cells assessed as fold reduction in raloxifene IC50 at 1:2 ratio of raloxifene to compound measured after 48 hrs by MTT assay relative to raloxifene alone; assay type: functional
A549 [11] = assay: Potentiation of raloxifene-induced cytotoxicity against human A549 cells assessed as combination index at 1:3 ratio of raloxifene to compound measured after 48 hrs by MTT assay; assay type: functional
A549 [12] = assay: Antiproliferative activity against human A549 cells measured after 48 hrs by MTT assay; assay type: functional, cell-based
A549 [13] = assay: Inhibition of colony formation in human A549 cells assessed as reduction in number of colonies at 64 to 128 uM measured after 48 hrs by colony formation assay; assay type: functional, cell-based; conditions: dose 64-128 µM
NCI-H661 [14] = assay: Potentiation of cisplatin-induced cytotoxicity against human NCI-H661 cells assessed as fold reduction in cisplatin IC50 at 1:4 ratio of cisplatin to compound measured after 48 hrs by MTT assay relative to cisplatin alone; assay type: functional
NCI-H661 [15] = assay: Potentiation of cisplatin-induced cytotoxicity against human NCI-H661 cells assessed as combination index at 1:4 ratio of cisplatin to compound measured after 48 hrs by MTT assay; assay type: functional
A549 [16] = assay: Reduction in PDE5 gene expression in human A549 cells at 0.1 IC50 measured after 48 hrs by qRT-PCR analysis; assay type: functional, cell-based
NCI-H1299 [17] = assay: Potentiation of raloxifene-induced cytotoxicity against human NCI-H1299 cells assessed as fold reduction in raloxifene IC50 at 1:2 ratio of raloxifene to compound measured after 48 hrs by MTT assay relative to raloxifene alone; assay type: functional
NCI-H661 [18] = assay: Antiproliferative activity against human NCI-H661 cells by MTT assay; assay type: functional, cell-based; conditions: time 24-72 hrs, TDE = time-dependent effect
A549 [19] = assay: Antiproliferative activity against human A549 cells by MTT assay; assay type: functional, cell-based; conditions: time 24-72 hrs, TDE = time-dependent effect
A549 [20] = assay: Induction of apoptosis in human A549 cells assessed as increase in apoptotic cells at 256 uM measured after 48 hrs by Annexin V-FITC/PI staining based flow cytometry relative to control; assay type: functional
A549 [21] = assay: Antiproliferative activity against human A549 cells measured after 72 hrs by MTT assay; assay type: functional, cell-based
A549 [22] = assay: Reduction in Bcl-2 gene expression in human A549 cells at 0.1 IC50 measured after 48 hrs by qRT-PCR analysis; assay type: functional, cell-based
A549 [23] = assay: Antiproliferative activity against human A549 cells measured after 24 hrs by MTT assay; assay type: functional, cell-based
A549 [24] = assay: Reduction in PDE5 protein expression in human A549 cells at 0.25 to 0.5 IC50 measured after 48 hrs by Western blot analysis; assay type: functional, cell-based
NCI-H661 [25] = assay: Antiproliferative activity against human NCI-H661 cells measured after 24 hrs by MTT assay; assay type: functional, cell-based
A549 [26] = assay: Cell cycle arrest in human A549 cells assessed as increase in cell population at G2 phase at 64 uM measured after 48 hrs by propidium iodide staining based flow cytometry; assay type: functional
A549 [27] = assay: Potentiation of cisplatin-induced cytotoxicity against human A549 cells assessed as combination index at 1:5 ratio of cisplatin to compound measured after 48 hrs by MTT assay; assay type: functional
A549 [28] = assay: Inhibition of colony formation in human A549 cells assessed as reduction in size of colonies at 64 to 128 uM measured after 48 hrs by colony formation assay; assay type: functional, cell-based; conditions: dose 64-128 µM
NCI-H1299 [29] = assay: Antimigratory activity against human NCI-H1299 cells assessed as reduction in wound closure measured after 24 hrs by wound healing assay; assay type: functional, cell-based
NCI-H1299 [30] = assay: Potentiation of raloxifene-induced cytotoxicity against human NCI-H1299 cells assessed as combination index at 1:2 ratio of raloxifene to compound measured after 48 hrs by MTT assay; assay type: functional
NCI-H1299 [31] = assay: Potentiation of cisplatin-induced cytotoxicity against human NCI-H1299 cells assessed as combination index at 1:4 ratio of cisplatin to compound measured after 48 hrs by MTT assay; assay type: functional
NCI-H1299 [32] = assay: Antiproliferative activity against human NCI-H1299 cells measured after 48 hrs by MTT assay; assay type: functional, cell-based

IC50 (NCI-H661 [3]; NCI-H661, 48 h): 80.4 µM
IC50 (NCI-H1299 [4]; NCI-H1299, 72 h): 70.5 µM
IC50 (NCI-H1299 [7]; NCI-H1299, 24 h): 76.1 µM
IC50 (NCI-H661 [9]; NCI-H661, 72 h): 98.8 µM
IC50 (A549 [12]; A549, 48 h): 128 µM
IC50 (A549 [21]; A549, 72 h): 82.8 µM
IC50 (A549 [23]; A549, 24 h): 150 µM
IC50 (NCI-H661 [25]; NCI-H661, 24 h): 177 µM
IC50 (NCI-H1299 [32]; NCI-H1299, 48 h): 86.3 µM
SMILES: CCCOc1ccc(S(=O)(=O)NCCC2CCCN2C)cc1-c1nc2c(CCC)nn(C)c2c(=O)[nH]1 (stereo unspecified) [UDENAFIL]
fold change (FC) (NCI-H1299 [1]): 2.4
fold change (FC) (A549 [2]): 1.7
Activity (NCI-H661 [3]): Dose-Dependent Effect
Activity (NCI-H1299 [4]): Dose-Dependent Effect
Activity (NCI-H1299 [5]): Tde
fold change (FC) (A549 [6]): 1.6
Activity (NCI-H1299 [7]): Dose-Dependent Effect
CI (NCI-H661 [8]): 0.8
Activity (NCI-H661 [9]): Dose-Dependent Effect
fold change (FC) (NCI-H661 [10]): 2.3
CI (A549 [11]): 0.98
Activity (A549 [12]): Dose-Dependent Effect
inhibition (A549 [13]): Active
fold change (FC) (NCI-H661 [14]): 2.1
CI (NCI-H661 [15]): 0.83
Activity (A549 [16]): Active
fold change (FC) (NCI-H1299 [17]): 2.4
Activity (NCI-H661 [18]): Tde
Activity (A549 [19]): Tde
Activity (A549 [20]): 55.9%
Activity (A549 [21]): Dose-Dependent Effect
Activity (A549 [22]): Active
Activity (A549 [23]): Dose-Dependent Effect
Activity (A549 [24]): Dose-Dependent Effect
Activity (NCI-H661 [25]): Dose-Dependent Effect
Activity (A549 [26]): Active
CI (A549 [27]): 0.95
inhibition (A549 [28]): Active
Activity (NCI-H1299 [29]): Dose-Dependent Effect
CI (NCI-H1299 [30]): 0.88
CI (NCI-H1299 [31]): 0.82
Activity (NCI-H1299 [32]): Dose-Dependent Effect
